In patent publication US10562891B2, “Quinazolinones as PARP14 inhibitors” (Ribon Therapeutics Inc., priority 2017, dated 2020) one finds IC50 data, which are given here for 38 compounds.

Counter-ions that a name gives are not always drawn.

For this assay, the target named is catalytic domain of human PARP14 (Homo sapiens (Human), UniProt Q460N5). Put plainly: Enzymatic assay for inhibition of PARP14 (DELFIA, auto-modification with biotin-NAD). Type of assay: biochemical. The following applies: auto-modification of PARP14 by biotin-NAD, 50 nM PARP14, 3 μM biotin-NAD. The gist of the method: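 His-TEV-tagged PARP14 catalytic domain (50 nM) preincubated with compound 30 min at 25 °C, then auto-modified with 3 μM biotin-NAD for 3 h at 25 °C in HEPES pH 8 buffer with DTT. IC50 from 4-parameter fit, rucaparib and DMSO as controls.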
Chain of catalytic domain of human PARP14 (Q460N5 1611-1801): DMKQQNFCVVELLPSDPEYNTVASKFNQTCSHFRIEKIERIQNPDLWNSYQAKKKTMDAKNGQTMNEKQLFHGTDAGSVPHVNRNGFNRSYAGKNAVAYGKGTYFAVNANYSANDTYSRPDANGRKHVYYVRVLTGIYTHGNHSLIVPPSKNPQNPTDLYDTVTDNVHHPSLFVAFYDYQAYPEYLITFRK

On to `Cc1cccc2c(=O)[nH]c(CSC3CCN(Cc4nn(C)c5ccccc45)CC3)nc12` [Example 143, 8-Methyl-2-(((1-((1-methyl-1H-indazol-3-yl)methyl)piperidin-4-yl)thio)methyl)quinazolin-4(3H)-one trifluoroacetate], for which the IC50 (in general, the midpoint of a concentration-inhibition curve) lay in the range of 1000 to 10000 nM. `Cc1nn(C)cc1CN1CCC(SCc2nc3c(C)cccc3c(=O)[nH]2)CC1` [Example 144, 2-(((1-((1,3-Dimethyl-1H-pyrazol-4-yl)methyl)piperidin-4-yl)thio)methyl)-8-methylquinazolin-4(3H)-one trifluoroacetate] showed an IC50 of 1000 to 10000 nM. As for `O=c1[nH]c(CSC2CCOCC2)nc2cc(Nc3ccncc3)ccc12` [Example 86, 7-(Pyridin-4-ylamino)-2-(((tetrahydro-2H-pyran-4-yl)thio)methyl)quinazolin-4(3H)-one], the figure is 1000 to 10000 nM; as for `CC(=O)N1CCCC(Nc2ccc3c(=O)[nH]c(CSC4CCOCC4)nc3c2)C1` (centres unmarked) [Example 132, 7-((1-Acetylpiperidin-3-yl)amino)-2-(((tetrahydro-2H-pyran-4-yl)thio)methyl)quinazolin-4(3H)-one], greater than 10000 nM; as for `Cc1cccc2c(=O)[nH]c(CS[C@H]3CC[C@@H](CO)OC3)nc12` (relative stereo) [Example 221, 2-(((Cis-6-(Hydroxymethyl)tetrahydro-2H-pyran-3-yl)thio)methyl)-8-methylquinazolin-4(3H)-one], 1000 to 10000 nM.

Compound `CN1CC[C@H](COc2cc(F)c3c(=O)[nH]c(CS[C@H]4CC[C@H](O)CC4)nc3c2)[C@@H](F)C1` (relative stereo) [Example 334, 5-Fluoro-7-(((trans)-3-fluoro-1-methylpiperidin-4-yl)methoxy)-2-((((trans)-4-hydroxycyclohexyl)thio)methyl)quinazolin-4(3H)-one trifluoroacetic acid] showed an IC50 of less than 1000 nM. With `O=c1[nH]c(CSC2CCOCC2)nc2cc(OCC3CCS(=O)(=O)CC3)cc(F)c12` [Example 351], the IC50 was less than 1000 nM.

Take `CC(=O)N1CCC(COc2cc(F)c3c(=O)[nH]c(CS[C@H]4CC[C@@H](O)CC4)nc3c2)CC1` [Example 422]: the IC50 was less than 1000 nM.

In the case of `COc1ccc(CN2CCC(SCc3nc4c(C)cccc4c(=O)[nH]3)CC2)nc1` [Example 157, 2-(((1-((5-Methoxypyridin-2-yl)methyl)piperidin-4-yl)thio)methyl)-8-methylquinazolin-4(3H)-one bistrifluoroacetate], the IC50 is less than 1000 nM. `O=c1[nH]c(CSC2CCOCC2)nc2cc(NCC3CC3)c(F)cc12` [Example 292, 7-((Cyclopropylmethyl)amino)-6-fluoro-2-(((tetrahydro-2H-pyran-4-yl)thio)methyl)quinazolin-4(3H)-one] yielded an IC50 of less than 1000 nM. Next, `O=c1[nH]c(CSC2CCOCC2)nc2cc(Nc3cnccn3)ccc12` [Example 85, 7-(Pyrazin-2-ylamino)-2-(((tetrahydro-2H-pyran-4-yl)thio)methyl)quinazolin-4(3H)-one]: 1000 to 10000 nM; `Cc1cccc2c(=O)[nH]c(CSC3CCN(Cc4cnn(Cc5ccccc5)c4)CC3)nc12` [Example 154, 2-(((1-((1-Benzyl-1H-pyrazol-4-yl)methyl)piperidin-4-yl)thio)methyl)-8-methylquinazolin-4(3H)-one trifluoroacetate]: less than 1000 nM. The compound `CC(=O)Nc1cccc(CN2CCC(SCc3nc4c(C)cccc4c(=O)[nH]3)CC2)c1` [Example 150, N-(3-((4-(((8-Methyl-4-oxo-3,4-dihydroquinazolin-2-yl)methyl)thio)piperidin-1-yl)methyl)phenyl)acetamide trifluoroacetate] yielded an IC50 of 1000 to 10000 nM. Regarding `O=c1[nH]c(CSC2CCNCC2)nc2cc(OCC3CC3)ccc12` [Example 275, 7-(Cyclopropylmethoxy)-2-((piperidin-4-ylthio)methyl)quinazolin-4(3H)-one], the IC50 is less than 1000 nM.

With `O=c1[nH]c(CSC2CCN(C3COC3)CC2)nc2cc(NCC3CC3)cc(F)c12` [Example 274, 7-((Cyclopropylmethyl)amino)-5-fluoro-2-(((1-(oxetan-3-yl)piperidin-4-yl)thio)methyl)quinazolin-4(3H)-one], the IC50 is less than 1000 nM.

Take `O=c1[nH]c(CSC2CCOCC2)nc2cc(NC3CCCCC3)c(F)cc12` [Example 290, 7-(Cyclohexylamino)-6-fluoro-2-(((tetrahydro-2H-pyran-4-yl)thio)methyl)quinazolin-4(3H)-one]: the IC50 is less than 1000 nM. Next, `CN1CC[C@H](CNc2cc3nc(CSC4CCOCC4)[nH]c(=O)c3c(F)c2F)[C@H](F)C1` (relative stereo) [Example 408]: 1000 to 10000 nM. The compound `Cc1cccc2c(=O)[nH]c(CS[C@H]3C[C@H](N)C3)nc12` [Example 52, 2-(((trans-3-Aminocyclobutyl)thio)methyl)-8-methylquinazolin-4(3H)-one Hydrochloride] displayed an IC50 of 1000 to 10000 nM.

Take `NC[C@]1(F)CC[C@@H](SCc2nc3cc(OCC4CCC4)cc(F)c3c(=O)[nH]2)CC1` [Example 336]: the IC50 lay within 1000 to 10000 nM. With `O=c1[nH]c(CSC2CCOCC2)nc2cc(OCC3CCOCC3)cc(F)c12` [Example 236, 5-Fluoro-7-((tetrahydro-2H-pyran-4-yl)methoxy)-2-(((tetrahydro-2H-pyran-4-yl)thio)methyl)quinazolin-4(3H)-one], the IC50 is less than 1000 nM. Compound `O=c1[nH]c(CS[C@@H]2CCNC[C@H]2F)nc2cc(NC3CCCC3)cc(F)c12` [Example 211b, 7-(Cyclopentylamino)-5-fluoro-2-((((3R,4R)-3-fluoropiperidin-4-yl)thio)methyl)quinazolin-4(3H)-one] came in with an IC50 of less than 1000 nM. Consider `COC(=O)N1CCC(SCc2nc3cc(NC4CCCC4)ccc3c(=O)[nH]2)CC1` [Example 208, Methyl 4-(((7-(cyclopentylamino)-4-oxo-3,4-dihydroquinazolin-2-yl)methyl)thio)piperidine-1-carboxylate], for which the IC50 is less than 1000 nM. As for `CCC(=O)N1CCC(COc2cc(F)c3c(=O)[nH]c(CSC4CCOCC4)nc3c2)CC1` [Example 398], the IC50 was less than 1000 nM. Next, `O=c1[nH]c(CSC2CCOCC2)nc2cc(NCC3CC3)c(F)c(F)c12` [Example 337]: less than 1000 nM; `Cc1cccc2c(=O)[nH]c(CSC3CCN(C(=O)[C@H](N)CCCCN)CC3)nc12` [Example 172, 2-(((1-(D-Lysyl)piperidin-4-yl)thio)methyl)-8-methylquinazolin-4(3H)-one Dihydrochloride]: less than 1000 nM; `O=C(CO)N1CCC(SCc2nc3cc(OCC4CCC4)cc(F)c3c(=O)[nH]2)CC1` [Example 307, 7-(Cyclobutylmethoxy)-5-fluoro-2-(((1-(2-hydroxyacetyl)piperidin-4-yl)thio)methyl)quinazolin-4(3H)-one]: less than 1000 nM. Next, `N#C[C@H]1CC[C@@H](Nc2cc3nc(CSC4CCOCC4)[nH]c(=O)c3c(F)c2F)CC1` [Example 361]: less than 1000 nM. Next, `O=c1[nH]c(CSC2CCCCC2)nc2cc(NC3CCCC3)c(F)c(F)c12` [Example 310, 2-((Cyclohexylthio)methyl)-7-(cyclopentylamino)-5,6-difluoroquinazolin-4(3H)-one]: less than 1000 nM; `O=c1[nH]c(CSC2CCOCC2)nc2cc(NC3CCCC3)ncc12` [Example 189, 7-(cyclopentylamino)-2-(((tetrahydro-2H-pyran-4-yl)thio)methyl)pyrido[4,3-d]pyrimidin-4(3H)-one]: 1000 to 10000 nM; `Cc1cc(OCC2CCOCC2)cc2nc(CSC3CCOCC3)[nH]c(=O)c12` [Example 364]: less than 1000 nM. Compound `O=c1[nH]c(CSC2CCOCC2)nc2cc(NC3CCOCC3)ccc12` [Example 114, 7-((Tetrahydro-2H-pyran-4-yl)amino)-2-(((tetrahydro-2H-pyran-4-yl)thio)methyl)quinazolin-4(3H)-one] gave an IC50 of 1000 to 10000 nM. The compound `COc1cc2c(=O)[nH]c(CSC3CCNCC3)nc2cc1NCC1CCC1` [Example 230, 7-((Cyclobutylmethyl)amino)-6-methoxy-2-((piperidin-4-ylthio)methyl)quinazolin-4(3H)-one Hydrochloride] registered an IC50 of 1000 to 10000 nM. The compound `O=c1[nH]c(CSC2CCNCC2)nc2cc(NCC3CCOCC3)cc(F)c12` [Example 272, 5-Fluoro-2-((piperidin-4-ylthio)methyl)-7-(((tetrahydro-2H-pyran-4-yl)methyl)amino)quinazolin-4(3H)-one] displayed an IC50 of 1000 to 10000 nM. Compound `CNC(=O)CN1CCC(SCc2nc3cc(NC4CCCC4)cc(F)c3c(=O)[nH]2)CC1` [Example 283, 2-(4-(((7-(Cyclopentylamino)-5-fluoro-4-oxo-3,4-dihydroquinazolin-2-yl)methyl)thio)piperidin-1-yl)-N-methylacetamide hydrochloride] displayed an IC50 of less than 1000 nM.

In turn, `O=c1[nH]c(CSC2CCOCC2)nc2cc(OCC3CCCOC3)cc(F)c12` (centres unmarked) [Example 319, 5-Fluoro-7-((tetrahydro-2H-pyran-3-yl)methoxy)-2-(((tetrahydro-2H-pyran-4-yl)thio)methyl)quinazolin-4(3H)-one] showed an IC50 of less than 1000 nM. The compound `O=c1[nH]c(CS[C@H]2C[C@H](O)C2)nc2cc(OCC3CCOCC3)cc(F)c12` [Example 382] displayed an IC50 of less than 1000 nM. `Cc1n[nH]cc1CN1CCC(SCc2nc3c(C)cccc3c(=O)[nH]2)CC1` [Example 149, 8-Methyl-2-(((1-((3-methyl-1H-pyrazol-4-yl)methyl)piperidin-4-yl)thio)methyl)quinazolin-4(3H)-one trifluoroacetate] came in with an IC50 of 1000 to 10000 nM. `O=c1[nH]c(CSC2CCOCC2)nc2cc(OC[C@H]3CCOC3)cc(F)c12` [Example 239b, (S)-5-fluoro-2-(((tetrahydro-2H-pyran-4-yl)thio)methyl)-7-((tetrahydrofuran-3-yl)methoxy)quinazolin-4(3H)-one] yielded an IC50 of less than 1000 nM.
